{
  "source": "patent US20220249404A1",
  "about": "(Nanjing Ruiying Runze Biopharmaceutical Technology Co., Inc., priority 2019, published 2022)",
  "key": {"[1]": {"test_system": "normal human skin melanocytes", "conditions": "cited from earlier work"}, "C57BL/6 mice": {"test_system": "C57BL/6 mice", "conditions": "oral administration, 2.6 mg/kg, stress-induced; cited from earlier work"}, "[2]": {"conditions": "long term oral administration, 20 mg/day; cited from earlier work"}, "normal mice": {"test_system": "normal mice", "conditions": "oral administration, 20 mg/kg; cited from earlier work"}, "B16F10 cells": {"test_system": "B16F10 cells", "conditions": "cited from earlier work"}, "zebrafish [3]": {"test_system": "zebrafish", "assay": "survival rate of zebrafish (PTU35h embryos, drugs alone or in combination)", "conditions": "for effect on survival rate of zebrafish: used alone; for IC50: Danio rerio, 25 h, read-out: IC50 (survival rate of zebrafish)"}, "tyrosinase": {"test_system": "tyrosinase", "assay": "tyrosinase activity of zebrafish (L-DOPA oxidation method)", "format": "in vivo"}, "zebrafish [4]": {"test_system": "zebrafish", "assay": "melanin content / effective rate on melanogenesis in zebrafish (NaOH lysis method)", "format": "in vivo", "conditions": "for efficacy of Flu (%): calculated using Formula 1; for efficacy of Cal (%): calculated using Formula 3"}, "normal melanocytes": {"test_system": "normal melanocytes", "conditions": "10^−9-10^−5 mol/L; cited from earlier work"}, "zebrafish [5]": {"test_system": "zebrafish", "conditions": "in vivo"}, "[6]": {"conditions": "0.2 mM PTU35h treatment group compared with normal control group"}, "[7]": {"conditions": "0.005-1.28 μg/ml, compared with PTU35h treatment group"}},
  "note": "Where two headings read alike, the source gives them in different places.",
  "data": [
    {"smiles": "CNCCC(Oc1ccc(C(F)(F)F)cc1)c1ccccc1", "note": "(racemic) [fluoxetine]", "values": [
      {"measurement": "melanin of normal human skin melanocytes", "setting": "[1]", "result": "can promote"},
      {"measurement": "skin discoloration of unhaired back", "setting": "C57BL/6 mice", "result": "can improve skin discoloration"},
      {"measurement": "side effects", "setting": "[2]", "result": "may cause side effects, such as insomnia, lethargy, suicide, neurological disorders"},
      {"measurement": "skin coloring", "setting": "normal mice", "result": "can promote skin coloring"},
      {"measurement": "synthesis (melanin) of B16F10 cells", "setting": "B16F10 cells", "result": "can promote"},
      {"measurement": "effect on survival rate of zebrafish", "setting": "zebrafish [3]; 100 μg/ml", "result": "significantly inhibited"},
      {"measurement": "tyrosinase activity of zebrafish", "setting": "tyrosinase; 1.6-25.6 μg/ml, compared with PTU35h treatment group", "result": "increase the tyrosinase activity of zebrafish in a dose-dependent manner"},
      {"measurement": "melanin content in zebrafish", "setting": "zebrafish [4]; 6.4-25.6 μg/ml, compared with PTU35h treatment group", "result": "increase the melanin content in zebrafish in a dose-dependent manner"},
      {"measurement": "effective rate (%) on melanogenesis in zebrafish", "setting": "zebrafish [4]; Flu alone 0.1 μg/ml", "result": 4.962, "unit": "%"},
      {"measurement": "effective rate (%) on melanogenesis in zebrafish", "setting": "zebrafish [4]; Flu alone 0.1 μg/ml, listed as Flu", "result": 4.5, "unit": "%"},
      {"measurement": "effective rate (%) on melanogenesis in zebrafish", "setting": "zebrafish [4]; Flu alone 0.4 μg/ml", "result": 6.564, "unit": "%"},
      {"measurement": "effective rate (%) on melanogenesis in zebrafish", "setting": "zebrafish [4]; Flu alone 1.6 μg/ml", "result": 10.260, "unit": "%"},
      {"measurement": "effective rate (%) on melanogenesis in zebrafish", "setting": "zebrafish [4]; Flu alone 1.6 μg/ml, listed as Flu", "result": 10.26, "unit": "%"},
      {"measurement": "effective rate (%) on melanogenesis in zebrafish", "setting": "zebrafish [4]; Flu alone 6.4 μg/ml", "result": 25.804, "unit": "%"},
      {"measurement": "effective rate (%) on melanogenesis in zebrafish", "setting": "zebrafish [4]; Flu alone 25.6 μg/ml", "result": 26.536, "unit": "%"},
      {"measurement": "efficacy of Flu (%)", "setting": "zebrafish [4]; listed as Flu 0.1 μg/ml", "result": 3.151, "unit": "%"},
      {"measurement": "efficacy of Flu (%)", "setting": "zebrafish [4]; listed as Flu 0.4 μg/ml", "result": 3.218, "unit": "%"},
      {"measurement": "efficacy of Flu (%)", "setting": "zebrafish [4]; listed as Flu 1.6 μg/ml", "result": 3.486, "unit": "%"},
      {"measurement": "efficacy of Flu (%)", "setting": "zebrafish [4]; listed as Flu 6.4 μg/ml", "result": 4.547, "unit": "%"},
      {"measurement": "efficacy of Flu (%)", "setting": "zebrafish [4]; listed as Flu 25.6 μg/ml", "result": 8.629, "unit": "%"}
    ]},
    {"smiles": "NC(=S)Nc1ccccc1", "note": "[PTU, 1-phenyl-2-thiourea]", "values": [
      {"measurement": "tyrosinase activity of zebrafish", "setting": "tyrosinase; [6]", "result": "decreased significantly"},
      {"measurement": "melanin content in zebrafish", "setting": "zebrafish [4]; [6]", "result": "decreased significantly"}
    ]},
    {"smiles": "C=C1CC[C@H](O)C/C1=C/C=C1\\CCC[C@]2(C)[C@@H]([C@H](C)CCCC(C)C)CC[C@@H]12", "note": "[VD3, vitamin D3]", "values": [
      {"measurement": "effect on survival rate of zebrafish", "setting": "zebrafish [3]; 5 μg/ml", "result": "significantly inhibited"},
      {"measurement": "tyrosinase activity of zebrafish", "setting": "tyrosinase; [7]", "result": "no significant effect"},
      {"measurement": "efficacy of VD3 (%)", "setting": "zebrafish [4]; VD3 0.02 μg/ml, calculated using Formula 2", "result": 3.72, "unit": "%"},
      {"measurement": "efficacy of VD3 (%)", "setting": "zebrafish [4]; VD3 0.08 μg/ml, calculated using Formula 2", "result": 5.41, "unit": "%"},
      {"measurement": "efficacy of VD3 (%)", "setting": "zebrafish [4]; VD3 0.32 μg/ml, calculated using Formula 2", "result": 11.07, "unit": "%"},
      {"measurement": "efficacy of VD3 (%)", "setting": "zebrafish [4]; VD3 1.28 μg/ml, calculated using Formula 2", "result": 15.74, "unit": "%"},
      {"measurement": "effective rate (%) on melanogenesis in zebrafish", "setting": "zebrafish [4]; used alone 0.02 μg/ml", "result": 5.564, "unit": "%"},
      {"measurement": "effective rate (%) on melanogenesis in zebrafish", "setting": "zebrafish [4]; used alone 0.08 μg/ml", "result": 7.337, "unit": "%"},
      {"measurement": "effective rate (%) on melanogenesis in zebrafish", "setting": "zebrafish [4]; used alone 0.32 μg/ml", "result": 10.315, "unit": "%"},
      {"measurement": "effective rate (%) on melanogenesis in zebrafish", "setting": "zebrafish [4]; used alone 1.28 μg/ml", "result": 15.775, "unit": "%"},
      {"measurement": "effective rate (%) on melanogenesis in zebrafish", "setting": "zebrafish [4]; zebrafish, in vivo", "result": 3.346, "unit": "%"},
      {"measurement": "efficacy of VD3 (%)", "setting": "zebrafish [4]; zebrafish, in vivo", "result": 3.28, "unit": "%"},
      {"measurement": "melanin content in zebrafish", "setting": "zebrafish [4]; zebrafish, in vivo", "result": "no significant difference"}
    ]},
    {"smiles": "C=C1/C(=C\\C=C2/CCC[C@]3(C)[C@@H]([C@H](C)/C=C/[C@@H](O)C4CC4)CC[C@@H]23)C[C@@H](O)C[C@@H]1O", "note": "[calcipotriol]", "values": [
      {"measurement": "melanogenesis of normal melanocytes", "setting": "normal melanocytes", "result": "can promote melanogenesis"},
      {"measurement": "effect on survival rate of zebrafish", "setting": "zebrafish [3]; 5 μg/ml", "result": "significantly inhibited"},
      {"measurement": "IC50", "setting": "zebrafish [3]", "result": 3.5, "unit": "µg/mL"},
      {"measurement": "tyrosinase activity of zebrafish", "setting": "tyrosinase; [7]", "result": "no significant effect"},
      {"measurement": "efficacy of Cal (%)", "setting": "zebrafish [4]; Cal 0.005 μg/ml", "result": 3.42, "unit": "%"},
      {"measurement": "efficacy of Cal (%)", "setting": "zebrafish [4]; Cal 0.02 μg/ml", "result": 3.85, "unit": "%"},
      {"measurement": "efficacy of Cal (%)", "setting": "zebrafish [4]; Cal 0.08 μg/ml", "result": 5.50, "unit": "%"},
      {"measurement": "efficacy of Cal (%)", "setting": "zebrafish [4]; Cal 0.32 μg/ml", "result": 10.77, "unit": "%"},
      {"measurement": "efficacy of Cal (%)", "setting": "zebrafish [4]; Cal 1.28 μg/ml", "result": 11.17, "unit": "%"},
      {"measurement": "effective rate (%) on melanogenesis in zebrafish", "setting": "zebrafish [4]; used alone 0.005 μg/ml", "result": 4.296, "unit": "%"},
      {"measurement": "effective rate (%) on melanogenesis in zebrafish", "setting": "zebrafish [4]; used alone 0.02 μg/ml", "result": 5.509, "unit": "%"},
      {"measurement": "effective rate (%) on melanogenesis in zebrafish", "setting": "zebrafish [4]; used alone 0.08 μg/ml", "result": 6.773, "unit": "%"},
      {"measurement": "effective rate (%) on melanogenesis in zebrafish", "setting": "zebrafish [4]; used alone 0.32 μg/ml", "result": 10.214, "unit": "%"},
      {"measurement": "effective rate (%) on melanogenesis in zebrafish", "setting": "zebrafish [4]; used alone 1.28 μg/ml", "result": 11.197, "unit": "%"}
    ]},
    {"smiles": "C=C1/C(=C\\C=C2/CCC[C@]3(C)[C@@H]([C@H](C)CC[C@@H](O)C(C)C)CC[C@@H]23)C[C@@H](O)C[C@@H]1O", "note": "[tacalcitol]", "values": [
      {"measurement": "effect on survival rate of zebrafish", "setting": "zebrafish [5]", "result": "significantly inhibited"},
      {"measurement": "IC50", "setting": "zebrafish [3]", "result": 4, "unit": "µg/mL"}
    ]}
  ]
}
